Test results as given in patent US8202902B2, “Bivalent SMAC mimetics and the uses thereof” (The Regents of the University of Michigan, priority 2006, dated 2012).

What was measured:
[1] = target: T1, human XIAP protein (residues 120-356) (Homo sapiens, UniProt P98170); experiment: Fluorescence-polarization-based binding assay to XIAP protein (Smac2-F tracer); details: read-out: Binding to XIAP IC50 values
T1 construct: human XIAP protein (residues 120-356) (10 nM)
Procedure: The polarization values were measured after 2 hours incubation, using the Ultra plate reader. […] Curve fitting is performed using GraphPad Prism® software.

[2] = system: XIAP, cIAP-1, and cIAP-2 proteins; experiment: Fluorescence-polarization based binding of control compounds to IAP proteins
Procedure: Therefore binding affinities of Smac mimetics to cIAP-2 BIR3-only protein were evaluated.

[3] = target: T2, Recombinant XIAP containing linker-BIR2-BIR3 (residues 120-356) (Homo sapiens, UniProt P98170); experiment: Cell-free functional assay: antagonism of XIAP inhibition of caspase-3/-7; type: biochemical; details: up to 100 μM
T2 construct: Recombinant XIAP containing linker-BIR2-BIR3 (residues 120-356)

[4] = system: MDA-MB-231 (2LMP) breast cancer cells; experiment: Cell growth inhibition by TRAIL alone or with Smac mimetic, MDA-MB-231 (2LMP); type: cell-based, human
Procedure: (§1) The rate of cell growth inhibition after treatment with different concentrations of the compound was determined using a WST-8 kit (2-(2-methoxy-4-nitrophenyl)-3-(4-nitrophenyl)-5-(2, 4 disulfophenyl)-2H-tetrazolium monosodium salt; Dojindo Molecular Technologies, Inc., Gaithersburg, Md.). WST-8 was added at a final concentration of 10% to each well, and then the plates were incubated at 37° C. for 2-3 hrs. The absorbance of the samples was measured at 450 nm using a ULTRA Tecan Reader (Molecular Device).
(§2) To test the ability of bivalent Smac mimetics to sensitize cancer cells to the growth inhibiting effects of other agents, cell growth inhibition assays were carried out with various agents alone or in combination with increasing doses of bivalent Smac mimetics.

[5] = system: MDA-MB-453 breast cancer cells; experiment: Cell growth inhibition by TRAIL alone or with Smac mimetic, MDA-MB-453; type: cell-based
Procedure: as §1, §2

[6] = system: PC-3 human prostate cancer cells; experiment: Cell growth inhibition by TRAIL alone or with Smac mimetic, PC-3; type: cell-based
Procedure: as §1, §2

T1 sequence (P98170 120-356): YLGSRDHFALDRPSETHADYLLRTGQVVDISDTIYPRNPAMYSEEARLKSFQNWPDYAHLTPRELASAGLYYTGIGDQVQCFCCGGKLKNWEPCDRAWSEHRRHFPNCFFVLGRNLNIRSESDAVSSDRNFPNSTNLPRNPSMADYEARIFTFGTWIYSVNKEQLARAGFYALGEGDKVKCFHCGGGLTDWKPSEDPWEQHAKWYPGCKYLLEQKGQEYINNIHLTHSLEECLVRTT
T2 sequence (P98170 120-356): as above

IC50 of TRAIL alone [4] [ng/mL]	IC50 of TRAIL alone [5] [ng/mL]	IC50 of TRAIL alone [6] [ng/mL]	Compound	IC50 [1] [µM]	less potent than SM-164 to these IAP proteins [2] [times]	effect in the functional assay [3]
			CC(=O)NC(Cc1c[nH]c2ccccc12)C(=O)NC1CCCCC2CCC(C(=O)NC(c3ccccc3)c3cn(CCCCc4ccc(CCCCn5cc(C(NC(=O)C6CCC7CCCCC(NC(=O)C(Cc8c[nH]c9ccccc89)NC(C)=O)C(=O)N76)c6ccccc6)nn5)cc4)nn3)N2C1=O (stereo not drawn) [SH-173]	> 10	1000	minimal effect
2.2	> 1000	> 300	TRAIL: tumor necrosis factor-related apoptosis-inducing ligand			
